The values that follow come from US9616053B2, “Indolin-2-one or pyrrolo-pyridin/pyrimidin-2-one derivatives” (Hoffmann-La Roche Inc., priority 2013, dated 2017).

Structures are written as SMILES. Counter-ions that a name gives are not always drawn.

What is called inhibition is the percentage by which the read-out fell short of the control.

The first test deals with L-687,414-induced hyperlocomotion. The test can be described thus: L-687,414-induced hyperlocomotion (Digiscan locomotor activity). The class given is in vivo, mouse. Particulars: Mus musculus; dose ip 20 mg/kg, at the same time as s.c. 50 mg/kg L-687,414; mice. From the text: The authors described that hyperlocomotion induced by L-687,414 was inhibited by a series of known antipsychotic drugs. […] These findings predict antipsychotic activity for the present compounds, making them useful for the treatment of positive (psychosis) and negative symptoms of schizophrenia, substance abuse, alcohol and drug addiction, obsessive-compulsive disorders, cognitive impairment, bipolar disorders, mood disorders, major depression, resistant depression, anxiety disorders, Alzheimer's disease, autism, Parkinson's disease, chronic pain, borderline personality disorder, sleep disturbances, chronic fatigue syndrome, stiffness, antiinflammatory effects in arthritis and balance problems.
The described compounds of formula I reduce L-687,414-induced hyperlocomotion. This was assessed by using a computerized Digiscan 16 Animal Activity Monitoring System (Omnitech Electronics, Columbus, Ohio) to quantify locomotor activity. Animals were kept under a 12 h light/dark cycle and experiments were performed during the light period. Each activity monitoring chamber consisted of a Plexiglas box (41×41×28 cm; W×L×H) with sawdust bedding on the floor surrounded by invisible horizontal and vertical infrared sensor beams. The test boxes were divided by a Plexiglas cross providing each mouse with 20×20 cm of moving space. Cages were connected to a Digiscan Analyzer linked to a computer that constantly collected the beam status information. Records of photocell beam interruptions for individual animals were taken every 5 min over the duration of the experimental session and the sum of the first 6 periods was used as the final parameter. Compounds were administered either p.o. 15 min before a s.c. injection of 50 mg/kg of L-687,414, or i.p. at the same time as a s.c. injection of 50 mg/kg of L-687,414. Mice were then transferred from their home cage to the recording chambers for a 15-min habituation phase allowing free exploration of the new environment. Horizontal activity was then recorded for a 30-min time period. The % inhibition of L-687,414-induced hyperlocomotion was calculated according to the equation: ((Veh+L-687,414 horizontal activity−drug+L-687,414 horizontal activity)Veh+L-687,414 horizontal activity)×100
ID50 values, defined as doses of each compound producing 50% inhibition of L-687,414-induced hyperlocomotion, were calculated by linear regression analysis of a dose-response data using an Excel-based computer-fitting program.
As data was not presupposed to be normally distributed, groups treated with test compounds were statistically compared with the control (vehicle-treated) group using one-tailed Mann Whitney U tests. In statistics, the Mann-Whitney Utest (also called the Mann-Whitney-Wilcoxon (MWW) or Wilcoxon rank-sum test) is a non-parametric statistical hypothesis test for assessing whether one of two samples of independent observations tends to have larger values than the other. It is one of the most well-known non-parametric significance tests. […] P values given in table 1 are one-tailed since only decreases in locomotion were expected and tested for (Mann, H. B., Whitney, D. R. (1947), “On a Test of Whether one of Two Random Variables is Stochastically Larger than the Other”, Annals of Mathematical Statistics, 18 (1), 50-60).
`Cc1cc(-c2ncc3c(n2)N(C2CC2)C(=O)C3(C)C)ccn1` [Example 114, 7-Cyclopropyl-5,5-dimethyl-2-(2-methylpyridin-4-yl)-5H-pyrrolo[2,3-d]pyrimidin-6(7H)-one] registered an inhibition at 20 mg/kg of 42%.

Take `CN1C(=O)C(C)(C)c2ccc(-c3ccc(C4CC4)nn3)cc21` [Example 79, 6-(6-Cyclopropylpyridazin-3-yl)-1,3,3-trimethyl-indolin-2-one]: the inhibition at 20 mg/kg is 62.5%.

Staying with this test, now noted: Mus musculus; dose ip 30 mg/kg, at the same time as s.c. 50 mg/kg L-687,414; mice.
Turning to `CN1C(=O)C(C)(C)c2ccc(-c3ccc4nccn4c3)cc21` [Example 30, 6-(Imidazo[1,2-a]pyridin-6-yl)-1,3,3-trimethylindolin-2-one], the inhibition at 30 mg/kg worked out at 49.1%.

As to `Cc1ncc(-c2ccc3c(c2)N(CC2COC2)C(=O)C3(C)C)cn1` [Example 129, 3,3-Dimethyl-6-(2-methylpyrimidin-5-yl)-1-(oxetan-3-ylmethyl)indolin-2-one], testing at 30 mg/kg gave an inhibition of 95.5%.

`CN1C(=O)C(C)(C)c2ccc(-c3cnc4c(c3)CCC4)cc21` [Example 23, 6-(6,7-Dihydro-5H-cyclopenta[b]pyridin-3-yl)-1,3,3-trimethylindolin-2-one] registered an inhibition at 30 mg/kg of 81.6%.

As to `Cn1cc(-c2ccc3c(c2)NC(=O)C3(C)C)cn1` [Example 87, 3,3-Dimethyl-6-(1-methyl-1H-pyrazol-4-yl)indolin-2-one], the inhibition at 30 mg/kg worked out at 82.8%.

On to `Cc1ncc(-c2cc3c(cn2)C(C)(C)C(=O)N3)cn1` [Example 92, 3,3-Dimethyl-6-(2-methylpyrimidin-5-yl)-1H-pyrrolo[3,2-c]pyridin-2-one], for which at 30 mg/kg the inhibition was 80.9%.

As to `Cc1ncc(-c2ccc3c(c2)N(C)C(=O)C3(C)C)cn1` [Example 12, 1,3,3-Trimethyl-6-(2-methylpyrimidin-5-yl)indolin-2-one], the inhibition at 30 mg/kg came to 93.7%.

Molecule `CCn1cnc(-c2ccc3c(c2)N(C)C(=O)C3(C)C)c1` [Example 133, 6-(1-Ethyl-1H-imidazol-4-yl)-1,3,3-trimethylindolin-2-one] gave an inhibition at 30 mg/kg of 44%.

For `Cc1ncc(-c2ccc3c(c2)N(CCCO)C(=O)C3(C)C)cn1` [Example 56, 1-(3-Hydroxypropyl)-3,3-dimethyl-6-(2-methylpyrimidin-5-yl)indolin-2-one], the inhibition at 30 mg/kg turned out to be 93.9%.

Consider `Cc1ncc(-c2ccc3c(c2)N(CCF)C(=O)C3(C)C)cn1` [Example 132, 1-(2-Fluoroethyl)-3,3-dimethyl-6-(2-methylpyrimidin-5-yl)indolin-2-one], for which testing at 30 mg/kg gave an inhibition of 95.3%.

Turning to `Cc1cc(-c2cc3c(cn2)C(C)(C)C(=O)N3C)ccn1` [Example 83, 1,3,3-Trimethyl-6-(2-methyl-4-pyridyl)pyrrolo[3,2-c]pyridin-2-one], the inhibition at 30 mg/kg was 53%.

For `CN(C)c1ncc(-c2ccc3c(c2)N(C)C(=O)C3(C)C)cn1` [Example 11, 6-(2-(Dimethylamino)pyrimidin-5-yl)-1,3,3-trimethylindolin-2-one], the inhibition at 30 mg/kg came to 72.2%.

On to `O=C1N(C2CC2)c2cc(-c3cccnc3)ncc2C12CC2` [Example 140, 1′-Cyclopropyl-6′-(pyridin-3-yl)spiro[cyclopropane-1,3′-pyrrolo[3,2-c]pyridin]-2′(1′H)-one], for which at 30 mg/kg the inhibition was 69.3%.

With `CC1(C)C(=O)Nc2cc(-n3cnc(C(O)C(F)(F)F)c3)ccc21` (stereo not drawn) [Example 168, 3,3-Dimethyl-6-[4-(2,2,2-trifluoro-1-hydroxy-ethyl)imidazol-1-yl]indolin-2-one], 30 mg/kg produced 77% inhibition.

Molecule `CC1(C)C(=O)Nc2cc(-c3cn(C4CC4)cn3)ccc21` [Example 113, 6-(1-Cyclopropyl-1H-imidazol-yl)-3,3-dimethylindolin-2-one] yielded an inhibition at 30 mg/kg of 83.9%.

For `CC1(C)C(=O)Nc2cc(-c3cncnc3)ccc21` [Example 8, 3,3-Dimethyl-6-(pyrimidin-5-yl)indolin-2-one], 30 mg/kg produced 52.5% inhibition.

Turning to `CC1(C)C(=O)Nc2cc(-c3cnc(N)nc3)ccc21` [Example 16, 6-(2-Aminopyrimidin-5-yl)-3,3-dimethylindolin-2-one], 30 mg/kg produced 89.4% inhibition.

`Cc1ncc(-c2ccc3c(c2)N(CCCOC2CC2)C(=O)C3(C)C)cn1` [Example 50, 1-(3-Cyclopropoxypropyl)-3,3-dimethyl-6-(2-methylpyrimidin-5-yl)indolin-2-one] showed an inhibition at 30 mg/kg of 86.3%.

In turn, `CC1(C)C(=O)Nc2cc(-c3ccnnc3)ccc21` [Example 17, 3,3-Dimethyl-6-(pyridazin-4-yl)indolin-2-one] registered an inhibition at 30 mg/kg of 66.7%.

As to `CN1C(=O)C(C)(C)c2ccc(-c3cnc(N)nc3)cc21` [Example 10, 6-(2-Aminopyrimidin-5-yl)-1,3,3-trimethylindolin-2-one], the inhibition at 30 mg/kg turned out to be 97.1%.

As to `Cc1noc(-c2ccc3c(c2)N(C)C(=O)C3(C)C)n1` [Example 59, 1,3,3-Trimethyl-6-(3-methyl-1,2,4-oxadiazol-5-yl)indolin-2-one], the inhibition at 30 mg/kg amounted to 45.2%.

For `Cc1ncccc1-c1ccc2c(c1)NC(=O)C2(C)C` [Example 19, 3,3-Dimethyl-6-(2-methylpyridin-3-yl)indolin-2-one], the inhibition at 30 mg/kg is 61.6%.

`Cc1cc(-c2cc3c(cn2)C2(CC2)C(=O)N3C)ccn1` [Example 136, 1′-Methyl-6′-(2-methylpyridin-4-yl)spiro[cyclopropane-1,3′-pyrrolo[3,2-c]pyridin]-2′(1′H)-one] came in with an inhibition at 30 mg/kg of 89.7%.

Consider `Cc1cncc(C)c1-c1ccc2c(c1)N(C)C(=O)C2(C)C` [Example 28, 6-(3,5-Dimethyl-pyridin-4-yl)-1,3,3-trimethyl-1,3-dihydro-indol-2-one formate], for which the inhibition at 30 mg/kg was determined as 68.4%.

`Cc1ncc(-c2ccc3c(c2)N(CCS(C)(=O)=O)C(=O)C3(C)C)cn1` [Example 57] returned an inhibition at 30 mg/kg of 79.9%.

The molecule `Cc1nnc(-c2ccc3c(c2)NC(=O)C3(C)C)o1` [Example 106, 3,3-Dimethyl-6-(5-methyl-1,3,4-oxadiazol-2-yl)indolin-2-one] showed an inhibition at 30 mg/kg of 75.7%.

With `CN1C(=O)C(C)(C)c2ccc(-c3ccncc3)c(F)c21` [Example 39, 7-Fluoro-1,3,3-trimethyl-6-pyridin-4-yl-1,3-dihydro-indol-2-one], 30 mg/kg produced 77.6% inhibition.

Molecule `Cc1ncc(-c2ccc3c(c2)N(CC(O)C(F)(F)F)C(=O)C3(C)C)cn1` (stereo not drawn) [Example 130, 3,3-Dimethyl-6-(2-methylpyrimidin-5-yl)-1-(3,3,3-trifluoro-2-hydroxypropyl)indolin-2-one] came in with an inhibition at 30 mg/kg of 89.4%.

`Cc1ncc(-c2ccc3c(c2)N(CC2CCC2)C(=O)C3(C)C)cn1` [Example 48, 1-(Cyclobutylmethyl)-3,3-dimethyl-6-(2-methylpyrimidin-5-yl)indolin-2-one] had an inhibition at 30 mg/kg of 68.6%.

The molecule `Cc1cc(-c2ccc3c(c2)N(C)C(=O)C3(C)C)on1` [Example 143, 1,3,3-Trimethyl-6-(3-methylisoxazol-5-yl)indolin-2-one] gave an inhibition at 30 mg/kg of 65.7%.

Still in this test, the particulars now being: dose producing 50% inhibition of L-687,414-induced hyperlocomotion; p.o. 15 min before s.c. 50 mg/kg L-687,414; mice.
In the case of `CC1(C)C(=O)Nc2cc(-c3ccncc3)ccc21` [Example 7, 3,3-Dimethyl-6-(pyridin-4-yl)indolin-2-one], the ID50 po is listed as 29.2 mg/kg.

`CN1C(=O)C(C)(C)c2ccc(-c3cnc4c(c3)NCCO4)cc21` [Example 25, 6-(2,3-Dihydro-1H-pyrido[2,3-b][1,4]oxazin-7-yl)-1,3,3-trimethylindolin-2-one] yielded an ID50 po of 3.03 mg/kg.

In the case of `Cc1ncc(-c2ccc3c(c2)N(CCO)C(=O)C3(C)C)cn1` [Example 55, 1-(2-Hydroxyethyl)-3,3-dimethyl-6-(2-methylpyrimidin-5-yl)indolin-2-one], the ID50 po is reported as 0.88 mg/kg.

Consider `CN1C(=O)C(C)(C)c2ccc(-n3ccnc3)cc21` [Example 61, 6-(1H-Imidazol-1-yl)-1,3,3-trimethylindolin-2-one], for which the ID50 po was found to be 10.71 mg/kg.

Molecule `Cc1ncc(-c2ccc3c(c2)NC(=O)C3(C)C)cn1` [Example 21, 3,3-Dimethyl-6-(2-methylpyrimidin-5-yl)indolin-2-one] yielded an ID50 po of 1.62 mg/kg.
